Organism: Rattus norvegicus
Test: Open TG-GATES - Regimen: Single
Type: toxicity, organism-based, Sprague-Dawley
Parameters: regimen Single, gender Male, age 6 weeks
Conditions: in vivo, po, 0 mg/kg, route gavage, dose level Control; for APTT / Bas / Eos / Fbg / Hb / Ht / Lym / MCH / MCHC / MCV / Mono / Neu / PT / Plat / RBC / Ret / WBC: tissue Blood; for KIDNEY_L / KIDNEY_R / KIDNEY_TOTAL: tissue Kidney; for LIVER: tissue Liver; for A/G / ALP / ALT / AST / BUN / CRE / Ca / Cl / DBIL / GLC / IP / K / LDH / Na / PL / RALB / TBIL / TC / TG / TP / gamma-GTP: tissue Plasma

Q: `CC(=N)S` [THIOACETAMIDE] was tested. Which TERMINAL_BW (3 h) did it give?
A: 187.1 g

Q: What about the APTT (3 h) of the same compound?
A: 17.5 s

Q: What about the Bas (3 h) of the same compound?
A: 0%

Q: What about the Eos (3 h) of the same compound?
A: 0.6%

Q: And the Fbg (3 h)?
A: 224.8 mg/dL

Q: And the Hb (3 h)?
A: 13.3 g/dL

Q: What about the Ht (3 h) of the same compound?
A: 40%

Q: What about the Lym (3 h) of the same compound?
A: 77.6%

Q: What about the MCH (3 h) of the same compound?
A: 21.7 pg

Q: And the MCHC (3 h)?
A: 33.1%

Q: What about the MCV (3 h) of the same compound?
A: 65.4 fL

Q: And the Mono (3 h)?
A: 8.2%

Q: And the Neu (3 h)?
A: 13.4%

Q: What about the PT (3 h) of the same compound?
A: 12 s

Q: What about the Plat (3 h) of the same compound?
A: 101.8 x10_4/uL

Q: And the RBC (3 h)?
A: 611.6 x10_4/ul

Q: And the Ret (3 h)?
A: 8.4%

Q: What about the WBC (3 h) of the same compound?
A: 120.6 x10_2/uL

Q: And the KIDNEY_L (3 h)?
A: 0.9 g

Q: And the KIDNEY_R (3 h)?
A: 0.9 g

Q: And the KIDNEY_TOTAL (3 h)?
A: 1.7 g

Q: And the LIVER (3 h)?
A: 8.7 g

Q: What about the A/G (3 h) of the same compound?
A: 2.1

Q: What about the ALP (3 h) of the same compound?
A: 962.8 IU/L

Q: What about the ALT (3 h) of the same compound?
A: 34.4 IU/L

Q: And the AST (3 h)?
A: 69.2 IU/L

Q: And the BUN (3 h)?
A: 10.2 mg/dL

Q: And the CRE (3 h)?
A: 0.5 mg/dL

Q: What about the Ca (3 h) of the same compound?
A: 10.6 mg/dL

Q: What about the Cl (3 h) of the same compound?
A: 103.6 meq/L

Q: What about the DBIL (3 h) of the same compound?
A: 0 mg/dL

Q: What about the GLC (3 h) of the same compound?
A: 181.6 mg/dL

Q: What about the IP (3 h) of the same compound?
A: 9.1 mg/dL

Q: And the K (3 h)?
A: 4.8 meq/L

Q: And the LDH (3 h)?
A: 87.6 IU/L

Q: And the Na (3 h)?
A: 137.2 meq/L

Q: And the PL (3 h)?
A: 141.8 mg/dL

Q: What about the RALB (3 h) of the same compound?
A: 3.7 g/dL

Q: And the TBIL (3 h)?
A: 0.4 mg/dL

Q: What about the TC (3 h) of the same compound?
A: 79.8 mg/dL

Q: And the TG (3 h)?
A: 52 mg/dL

Q: And the TP (3 h)?
A: 5.5 g/dL

Q: And the gamma-GTP (3 h)?
A: 1.8 IU/L

Q: What about the TERMINAL_BW (6 h) of the same compound?
A: 185.6 g

Q: And the APTT (6 h)?
A: 17 s

Q: What about the Bas (6 h) of the same compound?
A: 0%

Q: And the Eos (6 h)?
A: 1%

Q: And the Fbg (6 h)?
A: 221.6 mg/dL

Q: What about the Hb (6 h) of the same compound?
A: 13.1 g/dL

Q: What about the Ht (6 h) of the same compound?
A: 39.7%

Q: And the Lym (6 h)?
A: 79%

Q: And the MCH (6 h)?
A: 21.6 pg

Q: And the MCHC (6 h)?
A: 33.1%

Q: And the MCV (6 h)?
A: 65.2 fL

Q: What about the Mono (6 h) of the same compound?
A: 7.8%

Q: What about the Neu (6 h) of the same compound?
A: 12.8%

Q: What about the PT (6 h) of the same compound?
A: 12.1 s

Q: What about the Plat (6 h) of the same compound?
A: 104 x10_4/uL

Q: What about the RBC (6 h) of the same compound?
A: 610.4 x10_4/ul

Q: And the Ret (6 h)?
A: 9.2%

Q: And the WBC (6 h)?
A: 126.6 x10_2/uL

Q: And the KIDNEY_L (6 h)?
A: 0.9 g

Q: What about the KIDNEY_R (6 h) of the same compound?
A: 0.9 g

Q: What about the KIDNEY_TOTAL (6 h) of the same compound?
A: 1.8 g

Q: And the LIVER (6 h)?
A: 8.3 g

Q: And the A/G (6 h)?
A: 2.4

Q: And the ALP (6 h)?
A: 828.6 IU/L

Q: What about the ALT (6 h) of the same compound?
A: 30.2 IU/L

Q: And the AST (6 h)?
A: 65.2 IU/L

Q: What about the BUN (6 h) of the same compound?
A: 10.8 mg/dL

Q: And the CRE (6 h)?
A: 0.6 mg/dL

Q: And the Ca (6 h)?
A: 10.2 mg/dL

Q: What about the Cl (6 h) of the same compound?
A: 103.8 meq/L

Q: What about the DBIL (6 h) of the same compound?
A: 0.012 mg/dL

Q: And the GLC (6 h)?
A: 182.4 mg/dL

Q: What about the IP (6 h) of the same compound?
A: 9.6 mg/dL

Q: And the K (6 h)?
A: 5.1 meq/L

Q: And the LDH (6 h)?
A: 72.2 IU/L

Q: And the Na (6 h)?
A: 136.6 meq/L

Q: What about the PL (6 h) of the same compound?
A: 140.6 mg/dL

Q: What about the RALB (6 h) of the same compound?
A: 3.8 g/dL

Q: What about the TBIL (6 h) of the same compound?
A: 0.4 mg/dL

Q: And the TC (6 h)?
A: 80.8 mg/dL

Q: And the TG (6 h)?
A: 61.8 mg/dL

Q: What about the TP (6 h) of the same compound?
A: 5.4 g/dL

Q: What about the gamma-GTP (6 h) of the same compound?
A: 1 IU/L

Q: And the TERMINAL_BW (9 h)?
A: 186.9 g

Q: What about the APTT (9 h) of the same compound?
A: 16.2 s

Q: What about the Bas (9 h) of the same compound?
A: 0%

Q: What about the Eos (9 h) of the same compound?
A: 1%

Q: And the Fbg (9 h)?
A: 226.8 mg/dL

Q: What about the Hb (9 h) of the same compound?
A: 13 g/dL

Q: What about the Ht (9 h) of the same compound?
A: 39.5%

Q: What about the Lym (9 h) of the same compound?
A: 75%

Q: What about the MCH (9 h) of the same compound?
A: 22 pg

Q: What about the MCHC (9 h) of the same compound?
A: 33%

Q: And the MCV (9 h)?
A: 66.7 fL

Q: What about the Mono (9 h) of the same compound?
A: 7.8%

Q: And the Neu (9 h)?
A: 16.2%

Q: What about the PT (9 h) of the same compound?
A: 12.4 s

Q: What about the Plat (9 h) of the same compound?
A: 107.7 x10_4/uL

Q: What about the RBC (9 h) of the same compound?
A: 592 x10_4/ul

Q: What about the Ret (9 h) of the same compound?
A: 9.4%

Q: What about the WBC (9 h) of the same compound?
A: 120.6 x10_2/uL

Q: And the KIDNEY_L (9 h)?
A: 0.9 g

Q: What about the KIDNEY_R (9 h) of the same compound?
A: 0.9 g

Q: And the KIDNEY_TOTAL (9 h)?
A: 1.8 g

Q: And the LIVER (9 h)?
A: 8 g

Q: And the A/G (9 h)?
A: 2

Q: What about the ALP (9 h) of the same compound?
A: 859.8 IU/L

Q: What about the ALT (9 h) of the same compound?
A: 32.2 IU/L

Q: And the AST (9 h)?
A: 62.8 IU/L

Q: And the BUN (9 h)?
A: 13 mg/dL

Q: And the CRE (9 h)?
A: 0.5 mg/dL

Q: And the Ca (9 h)?
A: 10.3 mg/dL

Q: What about the Cl (9 h) of the same compound?
A: 104.6 meq/L

Q: And the DBIL (9 h)?
A: 0.03 mg/dL

Q: And the GLC (9 h)?
A: 186.2 mg/dL

Q: What about the IP (9 h) of the same compound?
A: 9.8 mg/dL

Q: And the K (9 h)?
A: 4.8 meq/L

Q: What about the LDH (9 h) of the same compound?
A: 84.4 IU/L

Q: And the Na (9 h)?
A: 136.6 meq/L

Q: What about the PL (9 h) of the same compound?
A: 124 mg/dL

Q: And the RALB (9 h)?
A: 3.7 g/dL

Q: What about the TBIL (9 h) of the same compound?
A: 0.4 mg/dL

Q: And the TC (9 h)?
A: 71.8 mg/dL

Q: And the TG (9 h)?
A: 42 mg/dL

Q: What about the TP (9 h) of the same compound?
A: 5.6 g/dL

Q: And the gamma-GTP (9 h)?
A: 1.4 IU/L

Q: What about the TERMINAL_BW (24 h) of the same compound?
A: 198.1 g

Q: And the APTT (24 h)?
A: 17.2 s

Q: What about the Bas (24 h) of the same compound?
A: 0%

Q: And the Eos (24 h)?
A: 0.8%

Q: And the Fbg (24 h)?
A: 218.5 mg/dL

Q: And the Hb (24 h)?
A: 13.3 g/dL

Q: What about the Ht (24 h) of the same compound?
A: 40.6%

Q: And the Lym (24 h)?
A: 80.8%

Q: What about the MCH (24 h) of the same compound?
A: 21.1 pg

Q: What about the MCHC (24 h) of the same compound?
A: 32.9%

Q: What about the MCV (24 h) of the same compound?
A: 64.2 fL

Q: And the Mono (24 h)?
A: 6.2%

Q: What about the Neu (24 h) of the same compound?
A: 12.5%

Q: And the PT (24 h)?
A: 12.1 s

Q: What about the Plat (24 h) of the same compound?
A: 107.1 x10_4/uL

Q: What about the RBC (24 h) of the same compound?
A: 632.8 x10_4/ul

Q: And the Ret (24 h)?
A: 8.1%

Q: And the WBC (24 h)?
A: 135 x10_2/uL

Q: And the KIDNEY_L (24 h)?
A: 0.9 g

Q: And the KIDNEY_R (24 h)?
A: 0.9 g

Q: And the KIDNEY_TOTAL (24 h)?
A: 1.8 g

Q: What about the LIVER (24 h) of the same compound?
A: 9.7 g

Q: And the A/G (24 h)?
A: 2.2

Q: And the ALP (24 h)?
A: 883 IU/L

Q: And the ALT (24 h)?
A: 32.5 IU/L

Q: What about the AST (24 h) of the same compound?
A: 63.5 IU/L

Q: And the BUN (24 h)?
A: 17.2 mg/dL

Q: And the CRE (24 h)?
A: 0.5 mg/dL

Q: And the Ca (24 h)?
A: 10.4 mg/dL

Q: And the Cl (24 h)?
A: 102.8 meq/L

Q: And the DBIL (24 h)?
A: 0.0425 mg/dL

Q: And the GLC (24 h)?
A: 183.2 mg/dL

Q: And the IP (24 h)?
A: 7.2 mg/dL

Q: What about the K (24 h) of the same compound?
A: 5.4 meq/L

Q: What about the LDH (24 h) of the same compound?
A: 87.2 IU/L

Q: What about the Na (24 h) of the same compound?
A: 136 meq/L

Q: And the PL (24 h)?
A: 152.8 mg/dL

Q: And the RALB (24 h)?
A: 4 g/dL

Q: What about the TBIL (24 h) of the same compound?
A: 0.3 mg/dL

Q: And the TC (24 h)?
A: 77.2 mg/dL

Q: And the TG (24 h)?
A: 113.2 mg/dL

Q: What about the TP (24 h) of the same compound?
A: 5.8 g/dL

Q: What about the gamma-GTP (24 h) of the same compound?
A: 1.5 IU/L
